Entries after “also recorded” stand apart in the source; their conditions may differ. Like-named read-outs stand apart in the source and are kept apart here. A value given as a limit tells only on which side of the number the result lay.

In data set [1] the test system is ΔcopA mutant strain. Nature of the data set: Growth curves in ThyB with copper sulfate and compound, copper exporter deficient mutant. It counts as cell-based, Streptococcus pneumoniae. Particulars: compound plus copper. From the text: Final solution was set to pH 6.6.
The subject of data set [2] is WT TIGR4 S. pneumoniae. As to the kind of experiment: Growth curves in ThyB with copper sulfate and compound. The following applies: for copper-dependent toxicity (CDT) / growth defect in growth curve: compound plus copper sulfate.
For data set [3] the following is noted: cited from earlier work.
In data set [4] the test system is S. aureus. Particulars: cited from earlier work.
In data set [5] the test system is Methicillin-resistant Staphylococcus aureus (MRSA). The following applies: topical cream containing 50 mg DMDC twice daily.
For data set [6], the system named is Streptococcus pneumoniae. The following applies: 150 mg DMDC orally once a day for a week.
In data set [7] the test system is Coccidioides posadasii. Particulars: inhaler with 50 mg DMDC twice a day for a week.
Data set [8] concerns TIGR4 S. pneumoniae. The following applies: ICP-OES.
In data set [9] the test system is WT TIGR4 S. pneumoniae. Particulars: M17.
Data set [10] deals with TIGR4 S. pneumoniae. Particulars: GFAAS.
Data set [11] relates to Streptococcus pyogenes. Particulars: inhaler with 25 mg DMDC twice a day for two weeks.
For data set [12], the system named is WT TIGR4 S. pneumoniae. As to the kind of experiment: Killing curves in THYB.
In data set [13] the test system is WT TIGR4 S. pneumoniae. The following applies: RPMI.
Data set [14] deals with WT TIGR4 bacteria co-cultured with activated J774A.1 macrophages. Nature of the data set: Macrophage killing assay, TIGR4 co-cultured with J774A.1 macrophages. It counts as cell-based, murine. Particulars: macrophages with 100 μM inhibitor; bacteria treated with 250 μM Cu2+ + 16 μM DMDC.
Data set [15] relates to M. tuberculosis. Particulars: cited from earlier work.
Data set [16] relates to Schistosoma mansoni. Particulars: newly transformed and lung stage schistosomula; cited from earlier work.

With `O.c1cnc2c(c1)ccc1cccnc12` [1,10-phenalthroline monohydrate], the “CDT / growth defect in growth curve, ΔcopA” value (from here on “CDT / growth defect … ΔcopA”) in data set [1] is “an effect”. In data set [2] (WT TIGR4), the “copper-dependent toxicity (CDT) / growth defect in growth curve” value is recorded as “no effect on wild type”.
Turning to `Oc1cccc2cccnc12` [8HQ, 8-hydroxyquinoline], in data set [1], the “CDT / growth defect … ΔcopA” value is on record as “susceptible; also recorded: does cause a growth defect”. Also, in [3] (mammals), the toxicity in mammals result is “inherent toxicity”. For the same compound, the “copper-dependent toxicity (CDT) / growth defect in growth curve” value in data set [2] (WT TIGR4) is listed as “no 8HQ mediated CDT; also recorded: do not cause a significant growth defect”. In addition, the “CDT against S. aureus” value in data set [4] is recorded as “have CDT”.
Take `CCN(CC)C(=S)S` [DETDC, N,N-diethyldithiocarbamate]: the “CDT at much higher / high concentrations” value in [2] (with copper) was “no effect”.
As to `CN(C)C(=S)[S][Na]` [DMDC], the side effects result in [5], in [6], in data set [7] and in [11] was “No side effects” throughout. In addition, the “increase of intracellular copper compared to the untreated control” value turned out to be 65 fold in data set [8] (250 μM Cu2+ + 16 μM DMDC) and 67 fold in data set [8] (250 μM Cu2+ + 32 μM DMDC). Moreover, the “toxicity of chronic use” value in data set [3] (chronic use) was “harm the liver and lead to higher rates of some carcinomas”. Moreover, the “toxicity of high doses” value in [3] (high doses) is “neurological problems”. Further, the “time required for killing” value was 1 to 2 h in data set [9] and 3 to 4 h in [13]. Moreover, the “increase of intracellular copper compared to the copper treated samples” value in [10] (250 μM Cu2+ + 16 μM DMDC) is on record as 7 fold; in data set [10] (250 μM Cu2+ + 32 μM DMDC), 10 fold. In data set [12] (low micromolar DMDC complexed with copper, in 2 hours), the “kill of wild-type Streptococcus pneumoniae” value is listed as “up to 99.9%”.
`N=C(N)NOCC[C@H](N)C(=O)O` [L-canavanine]: the “recovered bacteria with macrophage inhibitor treatment” value in data set [14] is “no statistically significant improvement”.
On to `CC1(C)C2CC3OB(c4cccc5cccnc45)OC3(C)C1C2` (stereo not drawn) [QBP, quinoline boronic acid pinanediol ester], for which, in data set [1], the “CDT / growth defect … ΔcopA” value was “susceptible; also recorded: does cause a growth defect” and the “CDT on the ΔcopA mutant as compared to 8HQ” value was “did not exhibit as much CDT”. Besides, in data set [2] (WT TIGR4), the “copper-dependent toxicity (CDT) / growth defect in growth curve” value is listed as “no CDT; also recorded: do not cause a significant growth defect”.
For the compound `CCN(CC)C(=S)SSC(=S)N(CC)CC` [TETD, tetraethylthiuram disulfide], in [2] (TETD alone, no copper), the “growth with compound alone” value is on record as “prevented growth”. Moreover, the “copper-dependent toxicity (CDT) / growth defect in growth curve” value is given as “returned growth to wild type levels” in [2] (WT TIGR4) and “not observed” in data set [2] (WT TIGR4, listed as disulfiram). Besides, in data set [15], the “copper dependent toxicity against M. tuberculosis” value is on record as “copper dependent toxicity”. Further, the “bactericidal activity in killing curve” value in [12] (compound alone or with copper sulfate) is “did not show bactericidal activity”.
In the case of `S=C(S)N1CCN(C(=S)S)CC1` [TLA2, Piperizine bis-dithiocarbamate], the “concentration showing protective effect vs copper” value in data set [2] (250 uM or 500 uM copper sulfate) was above 32 µM.
As for `COc1cc(C(C)=O)ccc1O` [apocynin], the “recovered bacteria with macrophage inhibitor treatment” value in [14] is reported as “no statistically significant improvement”.
Take `O=C(C1CCCCC1)N1CC(=O)N2CCc3ccccc3C2C1` (stereo not drawn) [praziquantel]: the “efficacy of praziquantel in these developmental stages” value in data set [16] is listed as “not effective”.
With `Cc1ncc(CSSCc2cnc(C)c(O)c2CO)c(CO)c1O.Cl` [pyrithoxin dihydrochloride], in [2] (WT TIGR4), the “copper-dependent toxicity (CDT) / growth defect in growth curve” value is “no effect”.

The record behind these values is patent US20240173292A1, “COMPOUNDS THAT SYNERGIZE WITH COPPER TO KILL STREPTOCOCCUS PNEUMONIAE” (priority 2021, published 2024).
